Results on 60 molecules are retold here after patent US20020155519A1 (priority 1997, published 2002).

“Also recorded” adds a separate entry of the source.

One test deals with human blood bacterium (HBB). The class given is cell-based.
Details: not given
Turning to `OCCS` [2-mercaptoethanol], the “effect on HBB growth in culture” value is recorded as “no significant effect”.
As to `CC(=O)N[C@@H](CS)C(=O)O` [N-acetyl cysteine], the “effect on HBB growth in culture” value is given as “Little or no stimulation or inhibition; also recorded: no significant effect”.
`NC12CC3CC(CC(C3)C1)C2` [amantadine, reference compound]: the “effect on HBB growth in culture” value is on record as “Little or no stimulation or inhibition”.
On the same count and under the same terms, the result for `N.N.O=S(=O)(O)O` [ammonium sulfate] reads “Little or no stimulation or inhibition; also recorded: no effect”; that for `[N-]=[N+]=[N-]` [azide, reference compound], “little effect on growth”.
As for `CCO` [ethanol], the “effect on HBB growth in culture” value is reported as “Some stimulation of growth”.
`OO` [hydrogen peroxide]: the “effect on HBB growth in culture” value is on record as “might also be stimulated”.
Same read-out and setting: to `[Fe]` [iron] belongs “stimulated”; to `CC(C)CCO` [isoamyl alcohol], “Some stimulation of growth”.
For the molecule `[Mn+2]` [manganese], the “effect on HBB growth in culture” value is recorded as “stimulated” and the “optimum concentration for stimulation of HBB growth” value was 1 µg/mL.
On to `CO` [methanol], for which the “effect on HBB growth in culture” value was “minimal or no stimulation of growth”.
On the same count and under the same terms, to `CSCC[C@H](N)C(=O)O` [methionine] belongs “appears to do so less consistently”; to `CN(C)c1ccc2nc3ccc(=[N+](C)C)cc-3sc2c1` [methylene blue], “Little or no stimulation or inhibition”.
Still for that read-out and setting: to `C1COCCN1` [morpholine] belongs “slight stimulation”.
Turning to `C[C@@H](O[C@H]1[C@H](O)[C@@H](CO)OC(O)[C@@H]1N)C(=O)O` (stereo partly shown) [muramic acid], the “effect on reduction of cell wall-defective forms” value (shortened to “effect on reduction”) is listed as “no effect”.
Take `CCCCO` [n-butanol]: the “effect on HBB growth in culture” value is reported as “Some stimulation of growth”.
The same measure, in the same setting: the result for `NCCCNCCCCNCCCN` [spermine] reads “Little or no stimulation or inhibition”; that for (oxidized) arachidonate, “might also be stimulated”; that for mercury, “possibly; also recorded: stimulated”.
On the same count and under the same terms, to titanium ethoxide belongs “slight stimulation”.

Staying with this test, now noted: 2 μg/ml.
Regarding `C[N+](C)(C)C[C@H](O)CC(=O)[O-]` [L-carnitine], the “effect on HBB growth in culture” value is “Little or no stimulation or inhibition”.

Staying with this test, now noted: 3 μg/ml.
In the case of `NCCOP(=O)(O)O` [phosphorylethanolamine], the “effect on HBB growth in culture” value is “Little or no stimulation or inhibition”.

The same test, now with this note: 4 μg/ml.
`O=C(O)c1cc(=O)[nH]c(=O)[nH]1` [orotic acid]: the “effect on HBB growth in culture” value is recorded as “Little or no stimulation or inhibition”.

The same test, now with this note: 10 μg/ml.
For `OCCS` [2-mercaptoethanol], the “effect on HBB growth in culture” value was “Little or no stimulation or inhibition”.
Still for that read-out and setting: the result for `O[C@@H](CS)[C@@H](O)CS` [dithiotheitol] reads “Little or no stimulation or inhibition”.

Staying with this test, now noted: 14 μg/ml.
As for `O=BOB(O)OB(O)OB=O` [borax], the “effect on HBB growth in culture” value is reported as “Little or no stimulation or inhibition”.
For `O=c1ccc2[n+]([O-])c3ccc(O)cc3oc-2c1` [resazurin], the “effect on HBB growth in culture” value is “Little or no stimulation or inhibition”.
Still for that read-out and setting: the result for `CCN(CC)CN(CC)CC` [tetraethylmethylenediamine] reads “slight stimulation”.

Staying with this test, now noted: 20 μg/ml.
On to `N[C@@H](CS)C(=O)O` [cysteine], for which the “effect on HBB growth in culture” value is on record as “Little or no stimulation or inhibition”.
Still for that read-out and setting: to `NCCS(=O)(=O)O` [taurine] belongs “Little or no stimulation or inhibition”.

The test is the same for the next values; noted with them: 20 μg/ml; listed as Cysteine.
Turning to `N[C@@H](CS)C(=O)O` [cysteine], the “effect on HBB growth in culture” value is reported as “appears to inhibit growth in some isolates”.

The same test, now with this note: 1/14 saturated.
Regarding `O=C(c1ccccc1)c1ccccc1` [benzophenone], the “effect on HBB growth in culture” value was “slight stimulation”.
Same read-out and setting: the result for `c1ccc(Nc2ccccc2)cc1` [diphenylamine] reads “slight stimulation”.
On the same count and under the same terms, to dichlorophenylenediamine belongs “Little or no stimulation or inhibition”.

The test is the same for the next values; noted with them: added to ½ strength medium O or RPMI.
`COC(C)=O` [methyl acetate]: the “effect on HBB growth in culture” value is recorded as “minimal or no stimulation of growth”.
The same measure, in the same setting: the result for `COP(=O)(OC)OC` [trimethyl phosphate] reads “minimal or no stimulation of growth”; that for `CN(C)C` [trimethylamine], “minimal or no stimulation of growth”.

Still in this test, the particulars now being: addition of cell wall precursors.
On to `CC(=O)N[C@H]1C(O)O[C@H](CO)[C@@H](O)[C@@H]1O` (stereo partly shown) [N-acetylglucosamine], for which the “effect on reduction” value is given as “no effect”.
For the molecule `CC(=O)N[C@H]1C(O)O[C@H](CO)[C@@H](O[C@@H]2O[C@H](CO)[C@H](O)[C@H](O)[C@H]2O)[C@@H]1O` (stereo partly shown) [N-acetyllactoasamine], the “effect on reduction” value is recorded as “no effect”.
Still for that read-out and setting: to `CC(=O)N[C@H]1C(O)O[C@H](CO)[C@@H](O)[C@@H]1O[C@H](C)C(=O)O` (stereo partly shown) [N-acetylmuramic acid] belongs “no effect”; to `N[C@H](CCC[C@H](N)C(=O)O)C(=O)O` [diaminopimelic acid], “no effect”.

The same test, now with this note: concentration not printed.
Turning to `CC(=O)N[C@H]1C(O)O[C@H](CO)[C@@H](O[C@@H]2O[C@H](CO)[C@H](O)[C@H](O)[C@H]2O)[C@@H]1O` (stereo partly shown) [N-acetyllactoasamine], the “effect on HBB growth in culture” value is given as “some stimulation of culture growth”.
Same read-out and setting: to `[Cr]` [chromium] belongs “no inhibition of bacterial growth”; to `[Cu]` [copper], “stimulated”; to `N[C@@H](CS)C(=O)O` [cysteine], “suppresses growth of some strains; also recorded: stimulates other strains”.
The same measure, in the same setting: to `O[C@@H](CS)[C@@H](O)CS` [dithiotheitol] belongs “no significant effect”.
Still for that read-out and setting: to `O=C(CO)[C@@H](O)[C@H](O)[C@H](O)CO` [fructose] belongs “support growth”; to `OC[C@H]1O[C@@H](O[C@H]2[C@H](O)[C@@H](O)C(O)O[C@@H]2CO)[C@H](O)[C@@H](O)[C@H]1O` (stereo partly shown) [lactose], “support growth”.
Regarding `[Mg+2]` [magnesium], the “effect on HBB growth in culture” value is given as “little effect on the growth”.
Still for that read-out and setting: to `OC[C@H]1O[C@H](OCC2O[C@@H](O)[C@H](O)[C@@H](O)[C@@H]2O)[C@H](O)[C@@H](O)[C@H]1O` (stereo partly shown) [meilibose] belongs “support growth”; to `CN(Cc1cnc2nc(N)nc(N)c2n1)c1ccc(C(=O)N[C@@H](CCC(=O)O)C(=O)O)cc1` [methotrexate, reference compound], “no inhibition”.
In the case of `O=C(O)c1ccccn1` [picolinic acid], the “effect on HBB growth in culture” value is reported as “Little or no stimulation or inhibition”.
The same measure, in the same setting: the result for `[I-].[K+]` [potassium iodide] reads “Little or no stimulation or inhibition”; that for `OC[C@H]1O[C@H](OC[C@H]2O[C@H](O[C@]3(CO)O[C@H](CO)[C@@H](O)[C@@H]3O)[C@H](O)[C@@H](O)[C@@H]2O)[C@H](O)[C@@H](O)[C@H]1O` [raffinose], “support growth”.
On the same count and under the same terms, to `[Ag]` [silver] belongs “stimulated”; to `OC[C@H]1O[C@@](CO)(O[C@H]2O[C@H](CO)[C@@H](O)[C@H](O)[C@H]2O)[C@@H](O)[C@@H]1O` [sucrose], “support growth”; to `NCCS(=O)(=O)O` [taurine], “no effect on cultures”.
On the same count and under the same terms, the result for `[Sn]` [tin] reads “stimulated”; that for `[Zn]` [zinc], “suppresses the growth; also recorded: inhibited”.
Consider chromium picolinate, for which the “effect on HBB growth in culture” value is reported as “Little or no stimulation or inhibition”.
Still for that read-out and setting: the result for dextran reads “support growth”.
Still for that read-out and setting: the result for silver proteinate reads “Little or no stimulation or inhibition”.

Still in this test, the particulars now being: ⅕ saturated.
`COC1=C(OC)C(=O)C(C/C=C(\C)CC/C=C(\C)CC/C=C(\C)CC/C=C(\C)CC/C=C(\C)CC/C=C(\C)CC/C=C(\C)CC/C=C(\C)CC/C=C(\C)CCC=C(C)C)=C(C)C1=O` [ubiquinone (Q10)]: the “effect on HBB growth in culture” value was “slight stimulation”.

For the next test, the system named is human blood bacterium (HBB). It counts as cell-based.
Details: not given
This is another data set of the same source. On the procedure: Normally 1 ml of serum was added to 9 ml of medium. Larger flasks with a proportionately larger amount of serum and medium are used to produce bacteria in quantity. Modulators might be added to some flasks in 10× or higher concentration (corresponding to addition of 1 ml or less). When examining the effect of modulators, control flasks were prepared similarly without the addition of the modulator. Levels were observed microscopically (inverted phase microscope, observing the number of organisms per field crudely or by actual count) after incubation, typically at several points in time.
When multiple comparisons were done at once, they were done in 12 well or 24 well cell culture plates, most often the latter. With the latter, typically 1 ml of medium inoculated with serum is added to each well, with modulators added at 10× or higher concentration (0.1 ml or less). When comparisons are done in well plates, control wells without any additions are included. Levels were observed microscopically (inverted phase microscope) after incubation, typically at several points in time. The well plate cultures were also used for antibiotic sensitivity testing.
These procedures are those known in the art and include uses of antibodies and DNA probes, Western and Southern blots, PCR and the diagnostic kits therefor. First, organisms can be quantified by culture. […] If a means is found to immobilize the bacteria to grow isolated colonies, counts will be more accurate. Quantification is used to follow the progress of treatment and to correlate HBB levels with specific disease syndromes. Quantification is used also for antibiotic sensitivity measurements, comparing the level of growth with antibiotic treatment to the level of growth without treatment. Such antibiotic sensitivity measurements establish the basis for the clinical choice of antibiotic drugs.
For the molecule `CC1(C)S[C@@H]2[C@H](NC(=O)[C@H](N)c3ccc(O)cc3)C(=O)N2[C@H]1C(=O)O` [amoxicillin], the “antibiotic sensitivity of HBB strains/isolates in culture” value was “less sensitivity”.

Staying with this test, now noted: 2 μg/ml.
In the case of `NCC[C@H](O)C(=O)N[C@@H]1C[C@H](N)[C@@H](O[C@H]2O[C@H](CN)[C@@H](O)[C@H](O)[C@H]2O)[C@H](O)[C@H]1O[C@H]1O[C@H](CO)[C@@H](O)[C@H](N)[C@H]1O` [amikacin], the “observed antibiotic and antifungal sensitivities (outcome, number of isolates)” value is on record as “no effect (1 isolate)”.

Still in this test, the particulars now being: 20 μg/ml.
`Nc1ccc(O)c(C(=O)O)c1` [5-aminosalicylic acid]: the “observed antibiotic and antifungal sensitivities (outcome, number of isolates)” value is “no effect (4 isolates)”.
